Assay results taken from publication PMC8445441, “Elucidating the mechanism by which synthetic helper peptides sensitize Pseudomonas aeruginosa to multiple antibiotics” (PLoS Pathogens, 2021).
Where two headings read alike, the source gives them in different places.

Key:
P. aeruginosa AUMC-Pa-3 = experiment: microbe, parasite or virus in culture; details: strain AUMC-Pa-3; for FICI: antibiotic + D-11 (MICb/MICbc 128/4); for MICa: MIC of the antibiotic: antibiotic alone; for MICa: MIC of the antibiotic / MICac: MIC of the antibiotic in the combination: unit not given; for MICac: MIC of the antibiotic in the combination: with D-11 at MICbc 4
How it was run: (§1)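 CLSI broth dilution; MHB; ~1 × 10^6 CFU/mL suspension mixed equal volume with drug; 37 °C for 18 h; visual read; triplicate. Broth sometimes supplemented with PG, PE, PC, CL, LPS, MgCl2, CaCl2 or PAβN.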

P. aeruginosa AUMC-Pa-6 = experiment: microbe, parasite or virus in culture; details: strain AUMC-Pa-6; for FICI: antibiotic + D-11 (MICb/MICbc 64/4); for MICa: MIC of the antibiotic: antibiotic alone; for MICa: MIC of the antibiotic / MICac: MIC of the antibiotic in the combination: unit not given; for MICac: MIC of the antibiotic in the combination: with D-11 at MICbc 4
How it was run: as §1

P. aeruginosa AUMC-Pa-5 = experiment: microbe, parasite or virus in culture; details: for FICI: antibiotic + D-11 (MICb/MICbc 64/4); for MICac: MIC of the antibiotic in the combination: with D-11 at MICbc 4
How it was run: as §1

P. aeruginosa AUMC-Pa-4 = experiment: microbe, parasite or virus in culture; details: strain AUMC-Pa-4; for FICI: antibiotic + D-11 (MICb/MICbc 128/4); for MICa: MIC of the antibiotic: antibiotic alone; for MICa: MIC of the antibiotic / MICac: MIC of the antibiotic in the combination: unit not given; for MICac: MIC of the antibiotic in the combination: with D-11 at MICbc 4
How it was run: as §1

P. aeruginosa PAO1 = experiment: microbe, parasite or virus in culture; details: PAO1
How it was run: as §1

[1] = system: clinical P. aeruginosa isolates; experiment: microbe, parasite or virus in culture; details: Pseudomonas aeruginosa, 18 h, antibiotic alone
How it was run: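 MIC is the lowest drug concentration showing no visible growth after 18 h at 37 °C. Two-fold dilutions in MHB were combined with an equal volume of bacterial suspension (about 1 × 10^6 CFU/mL), following CLSI broth microdilution, in triplicate.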

P. aeruginosa HM-214 = details: strain HM-214; antibiotic + D-11 (MICb/MICbc 128/4)
How it was run: as §1

P. aeruginosa PAK = experiment: microbe, parasite or virus in culture; set-up: MICa: MIC of the antibiotic / MICac: MIC of the antibiotic in the combination: unit not given beside the values; details: strain PAK; for FICI: antibiotic + D-11 (MICb/MICbc 64/4); for MICa: MIC of the antibiotic: antibiotic alone; for MICa: MIC of the antibiotic / MICac: MIC of the antibiotic in the combination: unit not given; for MICac: MIC of the antibiotic in the combination: with D-11 at MICbc 4
How it was run: as §1

P. aeruginosa ATCC27853 = experiment: microbe, parasite or virus in culture; set-up: MICa: MIC of the antibiotic / MICac: MIC of the antibiotic in the combination: unit not given beside the values; details: strain ATCC27853; for FICI: antibiotic + D-11 (MICb/MICbc 32/4)
How it was run: as §1

P. aeruginosa NR-31040 = experiment: microbe, parasite or virus in culture; set-up: MICa: MIC of the antibiotic / MICac: MIC of the antibiotic in the combination: unit not given beside the values; details: strain NR-31040; for FICI: antibiotic + D-11 (MICb/MICbc 128/4); for MICa: MIC of the antibiotic: antibiotic alone; for MICa: MIC of the antibiotic / MICac: MIC of the antibiotic in the combination: unit not given; for MICac: MIC of the antibiotic in the combination: with D-11 at MICbc 4
How it was run: as §1

P. aeruginosa PA14 = experiment: microbe, parasite or virus in culture; set-up: MICa: MIC of the antibiotic / MICac: MIC of the antibiotic in the combination: unit not given beside the values; details: strain PA14; for FICI: antibiotic + D-11 (MICb/MICbc 128/4); for MICa: MIC of the antibiotic: antibiotic alone; for MICa: MIC of the antibiotic / MICac: MIC of the antibiotic in the combination: unit not given; for MICac: MIC of the antibiotic in the combination: with D-11 at MICbc 4
How it was run: as §1

P. aeruginosa NR-31041 = experiment: microbe, parasite or virus in culture; set-up: MICa: MIC of the antibiotic / MICac: MIC of the antibiotic in the combination: unit not given beside the values; details: strain NR-31041; for FICI: antibiotic + D-11 (MICb/MICbc 64/4); for MICa: MIC of the antibiotic: antibiotic alone; for MICa: MIC of the antibiotic / MICac: MIC of the antibiotic in the combination: unit not given; for MICac: MIC of the antibiotic in the combination: with D-11 at MICbc 4
How it was run: as §1

P. aeruginosa AUMC-Pa-2 = details: strain AUMC-Pa-2; antibiotic + D-11 (MICb/MICbc 64/4)
How it was run: as §1

P. aeruginosa AUMC-Pa-1 = details: strain AUMC-Pa-1; antibiotic + D-11 (MICb/MICbc 128/4)
How it was run: as §1

[2] = strain AUMC-Pa-5, unit not given
[3] = read-out: Antibiotic sensibility (MIC) of clinical P. aeruginosa isolate AUMC-Pa-1, strain AUMC-Pa-1
[4] = read-out: Antibiotic sensibility (MIC) of clinical P. aeruginosa isolate AUMC-Pa-2, strain AUMC-Pa-2
[5] = read-out: Antibiotic sensibility (MIC) of clinical P. aeruginosa isolate AUMC-Pa-3, strain AUMC-Pa-3
[6] = read-out: Antibiotic sensibility (MIC) of clinical P. aeruginosa isolate AUMC-Pa-4, strain AUMC-Pa-4
[7] = read-out: Antibiotic sensibility (MIC) of clinical P. aeruginosa isolate AUMC-Pa-5, strain AUMC-Pa-5
[8] = read-out: Antibiotic sensibility (MIC) of clinical P. aeruginosa isolate AUMC-Pa-6, strain AUMC-Pa-6
[9] = read-out: Antibiotic sensibility (MIC) of clinical P. aeruginosa isolate HM-214, strain HM-214
[10] = read-out: Antibiotic sensibility (MIC) of clinical P. aeruginosa isolate NR-31040, strain NR-31040
[11] = read-out: Antibiotic sensibility (MIC) of clinical P. aeruginosa isolate NR-31041, strain NR-31041

## O=C(N[C@H](CO)[C@H](O)c1ccc([N+](=O)[O-])cc1)C(Cl)Cl [Chloramphenicol]
P. aeruginosa AUMC-Pa-3
  FICI: 0.063
  MICa: MIC of the antibiotic: 128
  MICac: MIC of the antibiotic in the combination: 4
P. aeruginosa AUMC-Pa-6
  FICI: 0.094
  MICa: MIC of the antibiotic: 128
  MICac: MIC of the antibiotic in the combination: 4
P. aeruginosa AUMC-Pa-5; strain AUMC-Pa-5
  FICI: 0.188
P. aeruginosa AUMC-Pa-5; strain AUMC-Pa-5, antibiotic alone, unit not given
  MICa: MIC of the antibiotic: 128
P. aeruginosa AUMC-Pa-5; [2]
  MICac: MIC of the antibiotic in the combination: 16
P. aeruginosa AUMC-Pa-4
  FICI: 0.063
  MICa: MIC of the antibiotic: 128
  MICac: MIC of the antibiotic in the combination: 4
P. aeruginosa PAO1; S3 Table, antibiotic + 2 μM D-11
  FICI: 0.094
P. aeruginosa PAO1; S3 Table, antibiotic + 4 μM D-11
  FICI: 0.156
P. aeruginosa PAO1; S3 Table, with 2 μM D-11
  MICac: the MIC for the antibiotic in the combination: 4 µM
P. aeruginosa PAO1; S3 Table, with 4 μM D-11
  MICac: the MIC for the antibiotic in the combination: 4 µM
P. aeruginosa PAO1; S3 Table, antibiotic alone
  MICa: the MIC of antibiotics: 128 µM
[1]; [3]
  MIC: > 128 µM
[1]; [4]
  MIC: 128 µM
[1]; [5]
  MIC: 128 µM
[1]; [6]
  MIC: 128 µM
[1]; [7]
  MIC: 128 µM
[1]; [8]
  MIC: 128 µM
[1]; [9]
  MIC: 128 µM
[1]; [10]
  MIC: 128 µM
[1]; [11]
  MIC: 128 µM
P. aeruginosa HM-214
  FICI: 0.063
P. aeruginosa PAK
  FICI: 0.094
  MICa: MIC of the antibiotic: 128
  MICac: MIC of the antibiotic in the combination: 4
P. aeruginosa ATCC27853
  FICI: 0.141
P. aeruginosa NR-31040
  FICI: 0.063
  MICa: MIC of the antibiotic: 128
  MICac: MIC of the antibiotic in the combination: 4
P. aeruginosa PA14
  FICI: 0.063
  MICa: MIC of the antibiotic: 128
  MICac: MIC of the antibiotic in the combination: 4
P. aeruginosa NR-31041
  FICI: 0.094
  MICa: MIC of the antibiotic: 128
  MICac: MIC of the antibiotic in the combination: 4
P. aeruginosa AUMC-Pa-2
  FICI: 0.094
P. aeruginosa AUMC-Pa-1
  FICI: 0.047

## CC[C@H]1OC(=O)[C@H](C)[C@@H](O[C@H]2C[C@@](C)(OC)[C@@H](O)[C@H](C)O2)[C@H](C)[C@@H](O[C@@H]2O[C@H](C)C[C@H](N(C)C)[C@H]2O)[C@](C)(OC)C[C@@H](C)C(=O)[C@H](C)[C@@H](O)[C@]1(C)O [Clarithromycin]
P. aeruginosa AUMC-Pa-3
  FICI: 0.094
  MICa: MIC of the antibiotic: 128
  MICac: MIC of the antibiotic in the combination: 8
P. aeruginosa AUMC-Pa-6
  FICI: 0.313
  MICa: MIC of the antibiotic: 128
  MICac: MIC of the antibiotic in the combination: 32
P. aeruginosa AUMC-Pa-5; Pseudomonas aeruginosa, AUMCPA5, 18 h, read-out: MICa: MIC of the antibiotic
  MIC: > 128 µM
P. aeruginosa AUMC-Pa-5; strain AUMC-Pa-5
  FICI: 0.188
P. aeruginosa AUMC-Pa-5; [2]
  MICac: MIC of the antibiotic in the combination: 32
P. aeruginosa AUMC-Pa-4
  FICI: 0.281
  MICa: MIC of the antibiotic: 128
  MICac: MIC of the antibiotic in the combination: 32
P. aeruginosa PAO1; S1 Table, macrolide alone
  MICa: the MIC of antibiotics: 128 µM
[1]; [3]
  MIC: 128 µM
[1]; [4]
  MIC: 128 µM
[1]; [5]
  MIC: 128 µM
[1]; [6]
  MIC: 128 µM
[1]; [7]
  MIC: > 128 µM
[1]; [8]
  MIC: 128 µM
[1]; [9]
  MIC: 128 µM
[1]; [10]
  MIC: 128 µM
[1]; [11]
  MIC: 128 µM
P. aeruginosa HM-214
  FICI: 0.281
P. aeruginosa PAK
  FICI: 0.188
  MICa: MIC of the antibiotic: 128
  MICac: MIC of the antibiotic in the combination: 16
P. aeruginosa ATCC27853
  FICI: 0.188
P. aeruginosa ATCC27853; antibiotic alone, unit not given
  MICa: MIC of the antibiotic: 128
P. aeruginosa ATCC27853; with D-11 at MICbc 4, unit not given
  MICac: MIC of the antibiotic in the combination: 8
P. aeruginosa NR-31040
  FICI: 0.281
  MICa: MIC of the antibiotic: 128
  MICac: MIC of the antibiotic in the combination: 32
P. aeruginosa PA14
  FICI: 0.281
  MICa: MIC of the antibiotic: 128
  MICac: MIC of the antibiotic in the combination: 32
P. aeruginosa NR-31041
  FICI: 0.188
  MICa: MIC of the antibiotic: 128
  MICac: MIC of the antibiotic in the combination: 16
P. aeruginosa AUMC-Pa-2
  FICI: 0.313
P. aeruginosa AUMC-Pa-1
  FICI: 0.156
